# Results published in publication PMC10709440, “High-throughput ligand profile characterization in novel cell lines expressing seven heterologous insect olfactory receptors for the detection of volatile plant biomarkers” (Scientific Reports, 2023).
# Where two headings read alike, the source gives them in different places.
# Key:
# Drosophila OR98a = molecular target: T1, Drosophila OR98a (Drosophila melanogaster, UniProt Q9VAZ3); assay: Calcium ion fluorescence (GCaMP6) assay, OR98a stable HEK293 cell line; format: cell-based; settings: for DF norm AVERAGE OR98a: threshold 0.05, below shown as 0
# T1 construct: expressed in transfected cells
# T1 sequence (Q9VAZ3 1-397): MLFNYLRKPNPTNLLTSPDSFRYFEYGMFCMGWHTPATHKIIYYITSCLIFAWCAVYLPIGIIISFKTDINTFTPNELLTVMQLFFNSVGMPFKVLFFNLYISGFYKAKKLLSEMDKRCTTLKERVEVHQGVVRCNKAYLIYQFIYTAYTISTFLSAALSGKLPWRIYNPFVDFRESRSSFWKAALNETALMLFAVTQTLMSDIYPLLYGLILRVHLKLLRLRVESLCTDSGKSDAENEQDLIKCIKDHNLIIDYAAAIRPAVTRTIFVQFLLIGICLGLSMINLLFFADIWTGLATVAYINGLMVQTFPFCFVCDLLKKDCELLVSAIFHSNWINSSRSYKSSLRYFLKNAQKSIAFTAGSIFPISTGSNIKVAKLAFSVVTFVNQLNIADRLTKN
# T1 sequence (Q9VNB5 1-486 partner): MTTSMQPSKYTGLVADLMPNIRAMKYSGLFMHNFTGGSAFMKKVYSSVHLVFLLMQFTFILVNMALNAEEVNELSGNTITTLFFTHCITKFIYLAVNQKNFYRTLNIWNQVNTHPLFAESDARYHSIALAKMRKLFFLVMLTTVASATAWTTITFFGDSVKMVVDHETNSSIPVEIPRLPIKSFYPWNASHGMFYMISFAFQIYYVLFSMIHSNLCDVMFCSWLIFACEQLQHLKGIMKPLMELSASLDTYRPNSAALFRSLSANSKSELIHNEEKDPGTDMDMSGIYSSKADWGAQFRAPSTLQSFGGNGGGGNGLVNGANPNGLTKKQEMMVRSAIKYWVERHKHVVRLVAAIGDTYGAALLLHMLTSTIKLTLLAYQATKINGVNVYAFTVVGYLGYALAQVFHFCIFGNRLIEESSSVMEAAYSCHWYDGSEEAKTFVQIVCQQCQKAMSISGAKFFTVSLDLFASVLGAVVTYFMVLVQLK
# How it was run: (§1)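 Responses are VUAA1-normalized ΔF: each VOC-evoked calcium signal, (FMAX−F0)/F0 over 30 s after injection, divided by the same line's mean 50 µM VUAA1 response. Cells were doxycycline-induced HEK293 with GCaMP6 and the cognate Drosophila OR, in HEPES buffer pH 7.3; ligands tested 0.01–100 μM.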
# Drosophila OR13a = molecular target: T2, Drosophila OR13a (Drosophila melanogaster, UniProt Q9VXL0); assay: Calcium ion fluorescence (GCaMP6) assay, OR13a stable HEK293 cell line; format: cell-based; settings: for DF norm AVERAGE OR13a: threshold 0.05, below shown as 0
# T2 construct: expressed in transfected cells
# T2 sequence (Q9VXL0 1-418): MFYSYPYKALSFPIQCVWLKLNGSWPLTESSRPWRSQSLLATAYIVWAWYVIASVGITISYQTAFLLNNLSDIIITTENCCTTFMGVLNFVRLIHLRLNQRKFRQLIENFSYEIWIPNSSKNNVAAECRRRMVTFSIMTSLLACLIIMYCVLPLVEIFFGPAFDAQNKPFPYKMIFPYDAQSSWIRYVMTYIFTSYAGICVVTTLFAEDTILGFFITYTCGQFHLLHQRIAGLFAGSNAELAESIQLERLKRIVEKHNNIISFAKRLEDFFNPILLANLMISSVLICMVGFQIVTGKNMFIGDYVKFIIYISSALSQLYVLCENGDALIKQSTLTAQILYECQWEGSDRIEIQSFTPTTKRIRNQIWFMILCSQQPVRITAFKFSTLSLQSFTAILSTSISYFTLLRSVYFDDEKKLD
# T2 sequence (Q9VNB5 1-486 partner): T1 sequence (Q9VNB5 1-486 partner)
# How it was run: as §1
# [1] = HEK293, read-out: Average response
# [2] = HEK293, read-out: OR98a response (VUAA1-normalized response)
# [3] = ligand concentration 1 (unit not given)
# [4] = ligand concentration 10 (unit not given)
# [5] = ligand concentration 100 (unit not given)
# [6] = HEK293, read-out: OR13a Average response (VUAA1-normalized), 1 μM VOC, 50 μM VUAA1 = 1, responses not exceeding 0.05 considered 0
# [7] = HEK293, read-out: OR13a Average response (VUAA1-normalized), 10 μM VOC, 50 μM VUAA1 = 1, responses not exceeding 0.05 considered 0
# [8] = HEK293, read-out: OR13a Average response (VUAA1-normalized), 100 μM VOC, 50 μM VUAA1 = 1, responses not exceeding 0.05 considered 0
# [9] = HEK293, read-out: OR13a response (VUAA1-normalized response), VOC concentration 1 μM
# [10] = HEK293, read-out: OR13a response (VUAA1-normalized response), VOC concentration 10 μM
# [11] = HEK293, read-out: OR13a response (VUAA1-normalized response), VOC concentration 100 μM
SMILES,activation at 1 µM (Drosophila OR98a; [1]) [%],activation at 10 µM (Drosophila OR98a; [1]) [%],activation at 100 µM (Drosophila OR98a; [1]) [%],activation at 1 µM (Drosophila OR98a; [2]) [%],activation at 10 µM (Drosophila OR98a; [2]) [%],activation at 100 µM (Drosophila OR98a; [2]) [%],DF norm AVERAGE OR98a (Drosophila OR98a; [3]),DF norm AVERAGE OR98a (Drosophila OR98a; [4]),DF norm AVERAGE OR98a (Drosophila OR98a; [5]),activation at 1 µM (Drosophila OR13a; [6]) [%],activation at 10 µM (Drosophila OR13a; [7]) [%],activation at 100 µM (Drosophila OR13a; [8]) [%],activation at 1 µM (Drosophila OR13a; [9]) [%],activation at 10 µM (Drosophila OR13a; [10]) [%],activation at 100 µM (Drosophila OR13a; [11]) [%],DF norm AVERAGE OR13a (Drosophila OR13a; [3]),DF norm AVERAGE OR13a (Drosophila OR13a; [4]),DF norm AVERAGE OR13a (Drosophila OR13a; [5])
CC(=O)c1ccccc1 [acetophenone],4,0,0,0,0,0,0,0,0,0,0,0,0,0,0,0,0,0
CC1=CCC2CC1C2(C)C (stereo not drawn) [alpha-pinene],0,0,0,0,0,0,0,0,0,0,0,1.73,0,0,0,0,0,0
CC1=CC[C@@H](C(C)(C)O)CC1 [alpha-terpineol],0,1.81,6.45,0,0,6.45,0,0,0.06455,3.36,0,0,0,0,0,0,0,0
O=Cc1ccccc1 [benzaldehyde],0,0,4.43,0,0,0,0,0,0,0,8,5,0,8,0,0,0.07623,0
C=C1CCC2CC1C2(C)C (stereo not drawn) [beta-pinene],19,17,1.89,19,17,0,0.1942,0.1655,0,8,0,3.25,8,0,0,0.08064,0,0
